# Laboratory results from patent US5464820A, “Specific inhibitors of tissue kallikrein” (priority 1993, dated 1995).
# Like-named read-outs stand apart in the source and are kept apart here. Non-standard residues stand in square brackets, D forms with d. Residues, ends and D or L forms follow the SMILES beside them. Phe(4-NH2) = Nc1ccc(C[C@H](N)C(=O)O)cc1; Phe(2-F) = N[C@@H](Cc1ccccc1F)C(=O)O; 2Thi = N[C@@H](Cc1cccs1)C(=O)O; Cha = N[C@@H](CC1CCCCC1)C(=O)O; Cit = NC(=O)NCCC[C@H](N)C(=O)O; hLys = NCCCCC[C@H](N)C(=O)O; dAbu = CC[C@@H](N)C(=O)O
# Experiments:
# Type in all cases: biochemical
# [1] = target: porcine pancreatic kallikrein (PPK) (Sus scrofa, UniProt P00752); assay: Inhibition of porcine pancreatic kallikrein, cleavage of chromogenic substrate S-2266 (KI)
# [2] = target: T1, human urinary kallikrein (HUK) (Homo sapiens, UniProt P06870); assay: Inhibition of human urinary (tissue) kallikrein (KI); conditions: read-out: KI HUK
# T1 construct: Human urinary kallikrein (HUK) was purified from human urine; from tissue
# Description: Human urinary kallikrein (HUK) was purified from human urine. Briefly, urine was subjected to ultrafiltration to concentrate the protein components which were applied to approtinin-CH-Sepharose affinity columns. Active fractions from these columns were next applied to Sephadex G-100 gel filtration and collected as fractions. The pH of each fraction was determined immediately upon elution, and the fraction was neutralized by addition of 2.0 ml of 2M Tris-HCL buffer, pH 8.0. Porcine pancreatic 24-kallikrein (PPK), at 50 units/mg protein; 1.0 units hydrolyses 1.0 μM BAEE (benzoyl -L-arginine ethyl ester) to N-a-benzoyl-L-arginine/minute at pH 8.7 at 25° C., was purchased from Sigma Chemical Company (St. Louis, Mo.). […] All other enzymes were purchased from Sigma Chemical Company (St. Louis, Mo.).
# Dixon plots were used for data reduction and for calculation of […].
# (§1) Assay methods were based on the cleavage of chromogenic substrate S-2266 (D-Val-Leu-Arg-pNA) (Kabi; Charlotte, N.C.) by porcine pancreatic kallikrein (Sigma Chemical Company; St. Louis, Mo.) to yield an increase in absorbance at 405 nm. By changing the substrate and enzyme, the general method has been extended to measure the inhibition of human tissue kallikrein (HTK or human urinary kallikrein HUK), human plasma kallikrein (HPK), plasmin, and urokinase (UK). In all assays, the robot dilutes the inhibitor into a series of wells and adds substrate and buffer. Chromogenic reactions are started by the addition of enzyme. Changes in the absorbance at 405 nm in an array of wells were recorded. All manipulations were performed by the instrument from reservoirs containing substrate, inhibitor, diluent (water), buffer, or enzyme.
# [3] = target: human plasma kallikrein (HPK) (Homo sapiens, UniProt P03952); assay: Inhibition of human plasma kallikrein (KI)
# From the text: as §1
# [4] = Table 4, Pro-X-Arg-Ser-Val-Gln, read-out: KI PPK
# [5] = Table 4, Pro-X-Arg-Ser-Val-Gln, read-out: KI HPK
# [6] = Table 2, P3 substitutions, read-out: log KI (converted)
# Sequence of human plasma kallikrein (HPK) (P03952 20-638): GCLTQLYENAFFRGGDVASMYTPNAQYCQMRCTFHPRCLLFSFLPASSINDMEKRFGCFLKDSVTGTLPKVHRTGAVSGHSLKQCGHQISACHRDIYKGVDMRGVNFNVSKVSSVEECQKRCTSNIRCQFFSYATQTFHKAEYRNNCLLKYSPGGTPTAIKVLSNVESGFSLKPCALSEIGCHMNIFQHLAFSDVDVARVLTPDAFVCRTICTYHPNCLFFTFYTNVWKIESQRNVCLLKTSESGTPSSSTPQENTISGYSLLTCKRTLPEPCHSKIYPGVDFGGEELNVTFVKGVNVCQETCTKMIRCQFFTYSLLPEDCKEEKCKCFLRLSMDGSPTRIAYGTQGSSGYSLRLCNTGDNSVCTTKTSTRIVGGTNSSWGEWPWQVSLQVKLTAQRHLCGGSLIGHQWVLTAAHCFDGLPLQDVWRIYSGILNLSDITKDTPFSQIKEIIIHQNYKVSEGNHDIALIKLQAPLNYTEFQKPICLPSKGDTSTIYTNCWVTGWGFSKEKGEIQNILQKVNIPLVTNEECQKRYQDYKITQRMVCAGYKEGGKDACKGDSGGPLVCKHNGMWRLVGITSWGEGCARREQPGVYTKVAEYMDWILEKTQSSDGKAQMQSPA
# Sequence of porcine pancreatic kallikrein (PPK) (P00752 8-87 limits assumed): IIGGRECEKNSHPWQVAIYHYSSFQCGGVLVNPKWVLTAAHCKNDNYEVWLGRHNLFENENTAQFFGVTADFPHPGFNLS
# Sequence of porcine pancreatic kallikrein (PPK) (P00752 95-246 limits assumed): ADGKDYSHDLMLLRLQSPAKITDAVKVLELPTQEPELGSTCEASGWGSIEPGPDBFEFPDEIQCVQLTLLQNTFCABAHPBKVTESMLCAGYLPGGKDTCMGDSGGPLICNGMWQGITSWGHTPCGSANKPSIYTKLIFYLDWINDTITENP
# T1 sequence (P06870 25-262): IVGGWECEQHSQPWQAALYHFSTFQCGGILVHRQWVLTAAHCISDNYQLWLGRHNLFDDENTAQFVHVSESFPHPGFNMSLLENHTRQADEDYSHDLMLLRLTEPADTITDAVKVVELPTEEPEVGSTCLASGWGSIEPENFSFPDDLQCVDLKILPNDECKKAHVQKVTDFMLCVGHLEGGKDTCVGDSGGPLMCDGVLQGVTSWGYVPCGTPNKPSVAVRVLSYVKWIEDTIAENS
smiles,measurement,setting,value
CC(C)[C@H](NC(=O)[C@H](CO)NC(=O)[C@H](CCCNC(=N)N)NC(=O)[C@H](Cc1cccs1)NC(=O)[C@@H]1CCCN1)C(=O)N[C@@H](CCC(N)=O)C(N)=O [KCH-4] (H-P[2Thi]RSVQ-NH2),Ki,[1]; [4],109 µM
same,Ki,"[2]; Table 4, Pro-X-Arg-Ser-Val-Gln",249 µM
same,Ki,[3]; [5],0.497 mM
"CC(C)[C@H](NC(=O)[C@H](CO)NC(=O)[C@H](CCCCCN)NC(=O)[C@H](Cc1ccccc1)NC(=O)[C@@H]1CCCN1)C(=O)N[C@@H](CCC(N)=O)C(N)=O [KIDZ-8, Pro-Phe-hLys-Ser-Val-Gln] (H-PF[hLys]SVQ-NH2)",Ki,"[1]; Table 7, read-out: K1 PPK",203 µM
"CC(C)[C@H](NC(=O)[C@H](CO)NC(=O)[C@H](CCCNC(N)=O)NC(=O)[C@H](Cc1ccccc1)NC(=O)[C@@H]1CCCN1)C(=O)N[C@@H](CCC(N)=O)C(N)=O [KIDZ-7, Pro-Phe-Cit-Ser-Val-Gln] (H-PF[Cit]SVQ-NH2)",Ki,"[1]; Table 7, in mM, read-out: K1 PPK",> 3000 µM
same,Ki,"[3]; Table 7, in mM, read-out: K1 HPK",> 5 mM
"CC(C)[C@H](NC(=O)[C@H](CO)NC(=O)[C@H](CCCNC(=N)N)NC(=O)[C@H](Cc1ccccc1)NC(=O)[C@@H](C)N)C(=O)N[C@@H](CCC(N)=O)C(N)=O [KKI-81, [D-Ala]-Phe-Arg-Ser-Val-Gln] (H-[dA]FRSVQ-NH2)",Ki,[1]; [6],50.1 µM
CC(C)[C@H](N)C(=O)N[C@@H](Cc1ccccc1)C(=O)N[C@@H](CCCNC(=N)N)C(=O)N[C@@H](CC(N)=O)C(=O)N[C@@H](CO)C(=O)N[C@@H](CCCNC(=N)N)C(N)=O [Val-Phe-Arg-Asn-Ser-Arg] (H-VFRNSR-NH2),Ki,"[3]; Table 6, HUK, read-out: KI HUK",0.194 mM
"CC(C)[C@H](NC(=O)[C@H](CO)NC(=O)[C@H](CCCNC(=N)N)NC(=O)[C@H](Cc1ccccc1)NC(=O)[C@H](N)C(C)C)C(=O)N[C@@H](CCC(N)=O)C(N)=O [KKI-83, [D-Val]-Phe-Arg-Ser-Val-Gln] (H-[dV]FRSVQ-NH2)",Ki,[1]; [6],100 µM
"CC[C@@H](C)[C@@H](N)C(=O)N[C@@H](Cc1ccccc1)C(=O)N[C@@H](CCCNC(=N)N)C(=O)N[C@@H](CO)C(=O)N[C@H](C(=O)N[C@@H](CCC(N)=O)C(N)=O)C(C)C [KKI-85, [D-Ile]-Phe-Arg-Ser-Val-Gln] (H-[dI]FRSVQ-NH2)",Ki,"[1]; text b291, β-PPK, read-out: KI",34 µM
CC(C)[C@H](N)C(=O)N[C@@H](Cc1ccccc1)C(=O)N[C@@H](CCCNC(=N)N)C(=O)N[C@@H](CC(N)=O)C(=O)N[C@H](CCCNC(=N)N)C(=O)N[C@@H](CCC(N)=O)C(N)=O [Val-Phe-Arg-Asn-dArg-Gln] (H-VFRN[dR]Q-NH2),Ki,"[3]; Table 6, HUK, read-out: KI HUK",1.57 mM
CC[C@H](C)[C@H](NC(=O)[C@H](CCCNC(=N)N)NC(=O)[C@H](C)NC(=O)[C@H](CCCCN)NC(=O)[C@H](CS)NC(=O)[C@@H]1CCCN1)C(N)=O [Pro-Cys-Lys-Ala-Arg-Ile] (H-PCKARI-NH2),Ki,"[1]; Table 6, read-out: KI PPK",0.003 µM
same,Ki,"[3]; Table 6, HUK, read-out: KI HUK",0.00018 mM
"CC(C)[C@H](NC(=O)[C@H](CO)NC(=O)[C@H](CCCNC(=N)N)NC(=O)[C@H](Cc1ccccc1)NC(=O)CN)C(=O)N[C@@H](CCC(N)=O)C(N)=O [KKI-80, Gly-Phe-Arg-Ser-Val-Gln] (H-GFRSVQ-NH2)",Ki,[1]; [6],79.4 µM
N=C(N)NCCC[C@H](NC(=O)[C@H](CO)NC(=O)[C@H](CO)NC(=O)[C@H](CCCNC(=N)N)NC(=O)[C@H](Cc1ccccc1)NC(=O)[C@@H]1CCCN1)C(N)=O [Pro-Phe-Arg-Ser-Ser-Arg] (H-PFRSSR-NH2),Ki,"[1]; Table 6, read-out: KI PPK",60 µM
same,Ki,"[2]; Table 6, first HUK column",54 µM
same,Ki,"[3]; Table 6, HUK, read-out: KI HUK",0.49 mM
"Nc1ccc(C[C@@H](C=O)NC(=O)[C@H](Cc2ccccc2)NC(=O)[C@@H]2CCCN2C(=O)[C@@H](N)Cc2ccccc2)cc1 [KITSD-1, Phe-Pro-Phe-Phe(4NH2)-aldehyde] (H-FPF[Phe(4-NH2)]-aldehyde)",Ki,"[1]; Table 7, read-out: K1 PPK",27 µM
CC(C)[C@H](NC(=O)[C@H](CO)NC(=O)[C@H](CCCNC(=N)N)NC(=O)[C@H](Cc1ccccc1F)NC(=O)[C@@H]1CCCN1)C(=O)N[C@@H](CCC(N)=O)C(N)=O [KCH-1] (H-P[Phe(2-F)]RSVQ-NH2),Ki,[1]; [4],124 µM
same,Ki,"[2]; Table 4, Pro-X-Arg-Ser-Val-Gln",151 µM
same,Ki,[3]; [5],0.472 mM
CC(C)[C@H](NC(=O)[C@H](CO)NC(=O)[C@H](CCCNC(=N)N)NC(=O)[C@H](CC1CCCCC1)NC(=O)[C@@H]1CCCN1)C(=O)N[C@@H](CCC(N)=O)C(N)=O [KCH-10] (H-P[Cha]RSVQ-NH2),Ki,[1]; [4],85 µM
same,Ki,"[2]; Table 4, Pro-X-Arg-Ser-Val-Gln",92 µM
same,Ki,[3]; [5],0.813 mM
"CC[C@@H](N)C(=O)N[C@@H](Cc1ccccc1)C(=O)N[C@@H](CCCNC(=N)N)C(=O)N[C@@H](CO)C(=O)N[C@H](C(=O)N[C@@H](CCC(N)=O)C(N)=O)C(C)C [KKI-82, [D-Aab]-Phe-Arg-Ser-Val-Gln] (H-[dAbu]FRSVQ-NH2)",Ki,[1]; [6],43.7 µM
